Where no end group is shown, it is not given here.

The target of one test is CSN^ΔCSNAP complex. Briefly: BIAcore surface plasmon resonance biosensor assay. The note with it: C-terminally biotinylated peptide immobilized on SA chip, CSN^ΔCSNAP 1-8 nM injected, 180 s binding, 1,000 s dissociation, 25°C, 1:1 binding fit. The source says: To validate the peptide array results, we used the surface plasmon resonance biosensor (Biacore) method to measure the binding affinities between C-CSNAP peptides and CSN^ΔCSNAP. We selected three peptides, the 16 residue C-terminal fragment (^42[…]^57, 16AA C-CSNAP) (Fig 4B), the 20 amino acid peptide (^38[…]^57, 20AA C-CSNAP) (Fig 4C), and a peptide containing the substitution of Asp to Glu at position 42 (D42E C-CSNAP) (Fig 4D). As a positive control, we used full-length CSNAP (Fig 4A), and a scrambled peptide ([…]) (Fig 4E) was used as a negative control. Interaction between the CSN^ΔCSNAP complex and the CSNAP variants was measured using a setting of 180 s binding followed by 1,000 s dissociation time (Fig 4).
Figure 4. C-CSNAP peptides display high affinity towards the CSN^ΔCSNAP complex. […] (F) Binding rate constants and affinities were determined via Biacore Evaluation Software analysis of SPR sensograms. […]
The experiments were carried out using Biacore SA200 SPR sensor (Biacore, GE Healthcare) with control software version 1.1 and Cytiva Series S Sensor chip SA. […] Data were analyzed in SA200 evaluation software version 1.1, with automatic fitting using parameter setting 1:1 binding (ka, kd, and tc global fit, Rmax and RI local fit).
For orientation: SPR reads the build-up and loss of mass on a sensor chip optically.

In another test the test system is HAP1 WT cells. Briefly: Resazurin-based cell proliferation assay. The note with it: HAP1 WT cells stably expressing Cer fusions, 24 h after plating, five independent experiments. The source says:
Figure 6. Expression of C-CSNAP reduces cellular proliferation rate. (A) Immunoprecipitation analysis using anti-GFP antibody recognizing cerulean (Cer) from lysates of cells expressing the Cer-fused 16AA, 20AA, D42E, and scrambled C-CSNAP in HAP1 WT cells. The COP9 signalosome complex was pulled down from all cells, except when Cer is expressed alone or fused to the scrambled C-CSNAP. Similarly, reciprocal immunoprecipitation by an anti-CSN3 antibody pulled down only the Cer-fused 16AA, 20AA, or D42E C-CSNAP. (B) Stable overexpression of 16AA and 20AA C-CSNAP–Cer in HAP1 WT cells reduces their rate of proliferation. […] One-way ANOVA (P < 0.05) with Dunnett’s multiple comparisons test was used to compare means *P < 0.05, **P < 0.01. […]
HAP1 WT cells stably expressing Cer, 16AA, and 20AA C-CSNAP–Cer were trypsinized and counted. […] Fluorescence intensities at 560/600 nm (ex/em) were measured, and average intensities of four replicates in each plate were calculated, normalized against WT after background subtraction, and normalized values from five independent experiments were compared on a bar graph with SEM. Significance was calculated using repeated measurment one-way ANOVA (P < 0.05) with Dunnett’s multiple comparisons test was used to compare means to Cer as control *P < 0.05, **P < 0.01.
In general terms: The colour change of resazurin is a common sign of viable cells or microbes.

Another test relates to CSN complex. Briefly: Reciprocal co-immunoprecipitation (anti-CSN3, anti-GFP) of Cer fusions in HAP1 cells. The format is cell-based. The following applies: peptides fused to Cer expressed in HAP1 cells; anti-CSN3 and anti-GFP pull-downs. The source says: To clarify the ability of C-CSNAP peptides to displace CSNAP in cells, we stably expressed four versions of CSNAP, the 16AA and 20AA C-CSNAP, D42E and scrambled peptides fused to the fluorescent protein Cer in HAP1 cells. As control, we used HAP1 cells expressing Cer only. We then performed reciprocal co-immunoprecipitation analyses, using antibodies against CSN3 and GFP recognizing Cer (Figs 6A and S5). […] This is reflected by the higher intensity of the GFP band upon CSN3 pull down, and by the more intense CSN3 band following GFP co-immunoprecipitation.
Figure 6. Expression of C-CSNAP reduces cellular proliferation rate. (A) Immunoprecipitation analysis using anti-GFP antibody recognizing cerulean (Cer) from lysates of cells expressing the Cer-fused 16AA, 20AA, D42E, and scrambled C-CSNAP in HAP1 WT cells. The COP9 signalosome complex was pulled down from all cells, except when Cer is expressed alone or fused to the scrambled C-CSNAP. Similarly, reciprocal immunoprecipitation by an anti-CSN3 antibody pulled down only the Cer-fused 16AA, 20AA, or D42E C-CSNAP. (B) Stable overexpression of 16AA and 20AA C-CSNAP–Cer in HAP1 WT cells reduces their rate of proliferation. […] One-way ANOVA (P < 0.05) with Dunnett’s multiple comparisons test was used to compare means *P < 0.05, **P < 0.01.
Figure S5. […]

A further test has as its system CSN complex (CSN5). Briefly: Co-immunoprecipitation (anti-GFP) of transiently expressed Cer fusions in HAP1 WT cells. The note with it: transient expression of Cer fusions, anti-GFP pull-down, CSN5/GFP densitometry, at least three experiments. The format is cell-based. The source says:
To define whether C-CSNAP can displace the endogenous CSN subunit from the complex, we transiently expressed several versions of C-CSNAP peptides with differing lengths, fused to the fluorescent protein cerulean (Cer) in WT HAP1 cells (Fig 2A) and cells lacking CSNAP (ΔCSNAP cells) (Fig S2A). We then performed co-immunoprecipitation analyses, using an antibody against GFP that recognizes the Cer tag (Figs 2B and C and S2B). […] Moreover, in ΔCSNAP cells, all C-CSNAP derivatives were efficiently incorporated into CSN (Fig S2B), whereas in WT cells, differential integration was observed (Fig 2B). […] Truncations of the 16 amino acid stretch from either end decreased or abolished the incorporation efficiency (Fig 2B and C).
Figure 2. The last 16 amino acids of CSNAP efficiently displace the endogenous CSNAP subunit. (A) The different CSNAP C-terminal sequences that were examined. The 16 amino acid sequence is highlighted in blue, and the N- or C-terminally truncated forms are labelled in green and magenta, respectively (numbering of residues are corresponding to full length CSNAP). […] (C) Quantification of the densitometry results of at least three independent immunoprecipitation experiments using an anti-GFP antibody, represented as mean ratios of immunoprecipitated CSN5/GFP, followed by normalization to the sample transfected with Cer, plotted as mean ± SEM. […]

Consider IDGENVSNLDYARKAT [scrambled peptide], for which the Kd result on CSN^ΔCSNAP complex is reported as “No measurable binding”.

In the case of “20AA C-CSNAP–Cer: 20AA C-CSNAP fused to the fluorescent protein cerulean (Cer), expressed in HAP1 cells (AVHADFFNDFEDLFDDDDIQ; also: fused to Cerulean, end not given here)”, the “cell proliferation compared with cells expressing only Cer, in words” value in the test on HAP1 WT cells is given as “significant reductions in cell proliferation”. Moreover, the “integration into the CSN complex, based on band intensities, in words” value with CSN complex is “highest ability to integrate into CSN”.

On to “16AA C-CSNAP–Cer: 16AA C-CSNAP fused to the fluorescent protein cerulean (Cer), expressed in HAP1 cells (DFFNDFEDLFDDDDIQ; also: C-terminal fusion to Cerulean via Gly-Ser-Gly-Ser linker)”, for which, in the test on HAP1 WT cells, the “cell proliferation compared with cells expressing only Cer, in words” value is on record as “significant reductions in cell proliferation”. The “integration into the CSN complex, based on band intensities, in words” value in the test with CSN complex is “lower”. Further, the “association with / incorporation into the CSN complex, in words” value with CSN complex (CSN5) is “highest degree of association with the CSN complex”.

Source of the values: paper PMC10355216, “The C-terminal tail of CSNAP attenuates the CSN complex” (Life Science Alliance, 2023).
